Source: patent US12077503B2, “Substituted cyclic amides and their use as herbicides” (FMC CORPORATION, priority 2015, dated 2024)

Assays:
Assay type in all cases: in vivo
[1] = system: barnyardgrass (Echinochloa crus-galli); assay: Test A preemergence; settings: Echinochloa crus-galli, pre-emergence, 240 h
Summary of the method: (§1)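 Visual injury scores from 0, no effect, to 100, complete control, were assigned versus untreated controls roughly 10 d after treatment in the greenhouse. Test chemicals, formulated with surfactant in a non-phytotoxic solvent, were applied to planted seeds as a preemergence soil spray or postemergence to one- to two-leaf plants 2 to 10 cm tall, in loam–sand soil.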

Kochia (Kochia scoparia) [2] = assay: Test A preemergence; settings: Bassia scoparia, pre-emergence, 240 h
Summary of the method: as §1

[3] = system: ryegrass, Italian (Italian ryegrass, Lolium multiflorum); assay: Test A preemergence; settings: Lolium multiflorum, pre-emergence, 240 h
Summary of the method: as §1

[4] = system: giant foxtail (Setaria faberii); assay: Test A preemergence; settings: Setaria faberi, pre-emergence, 240 h
Summary of the method: as §1

[5] = system: ragweed (common ragweed, Ambrosia elatior); assay: Test A preemergence; settings: Ambrosia artemisiifolia, pre-emergence, 240 h
Summary of the method: as §1

[6] = system: pigweed (Amaranthus retroflexus); assay: Test A preemergence; settings: Amaranthus retroflexus, pre-emergence, 240 h
[7] = system: barnyardgrass (Echinochloa crus-galli); assay: Test B flooded paddy test; settings: Echinochloa crus-galli, Flood, 250 g ai/ha; scale of 0 to 100 where 0 is no effect and 100 is complete control; read-out: Barnyardgrass plant response rating
Summary of the method: (§2)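 Compound goes directly into floodwater once pots are flooded 3 cm above soil, targeting plants at two leaves; the water depth is then held for the test duration. Plants sit 13–15 d in a greenhouse and are rated visually, 100 denoting complete control.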

[8] = system: sedge, umbrella (small-flower umbrella sedge, Cyperus difformis); assay: Test B flooded paddy test; settings: Cyperus difformis, Flood, 250 g ai/ha; scale of 0 to 100 where 0 is no effect and 100 is complete control; read-out: Sedge, Umbrella plant response rating
Summary of the method: as §2

rice (Oryra sativa) = assay: Test B flooded paddy test; settings: Oryza sativa, Flood, 250 g ai/ha; scale of 0 to 100 where 0 is no effect and 100 is complete control; read-out: Rice plant response rating
Summary of the method: as §2

[9] = system: ducksalad (Heteranthera limosa); assay: Test B flooded paddy test; settings: Heteranthera limosa, Flood, 250 g ai/ha; scale of 0 to 100 where 0 is no effect and 100 is complete control; read-out: Ducksalad plant response rating
Summary of the method: as §2

[10] = system: barnyardgrass (Echinochloa crus-galli); assay: Test A postemergence; settings: Echinochloa crus-galli, post-emergence, 240 h, 125 g ai/ha, Postemergence; visual injury after approximately 10 d; 0 to 100 scale where 0 is no effect and 100 is complete control; read-out: Plant response rating, Barnyardgrass
Summary of the method: as §1

corn (Zea mays) = assay: Test A postemergence; settings: Zea mays, post-emergence, 240 h, 125 g ai/ha, Postemergence; visual injury after approximately 10 d; 0 to 100 scale where 0 is no effect and 100 is complete control
Summary of the method: as §1

[11] = system: wheat (Triticum aestivum); assay: Test A postemergence; settings: Triticum aestivum, post-emergence, 240 h, 125 g ai/ha, Postemergence; visual injury after approximately 10 d; 0 to 100 scale where 0 is no effect and 100 is complete control; read-out: Plant response rating, Wheat
Summary of the method: as §1

[12] = system: blackgrass (Alopecurus myosuroides); assay: Test A postemergence; settings: Alopecurus myosuroides, post-emergence, 240 h, 125 g ai/ha, Postemergence; visual injury after approximately 10 d; 0 to 100 scale where 0 is no effect and 100 is complete control; read-out: Plant response rating, Blackgrass
Summary of the method: as §1

Kochia (Kochia scoparia) [13] = assay: Test A postemergence; settings: Bassia scoparia, post-emergence, 240 h, 125 g ai/ha, Postemergence; visual injury after approximately 10 d; 0 to 100 scale where 0 is no effect and 100 is complete control; read-out: Plant response rating, Kochia
Summary of the method: as §1

[14] = system: ryegrass, Italian (Italian ryegrass, Lolium multiflorum); assay: Test A postemergence; settings: Lolium multiflorum, post-emergence, 240 h, 125 g ai/ha, Postemergence; visual injury after approximately 10 d; 0 to 100 scale where 0 is no effect and 100 is complete control; read-out: Plant response rating, Ryegrass, Italian
Summary of the method: as §1

[15] = system: giant foxtail (Setaria faberii); assay: Test A postemergence; settings: Setaria faberi, post-emergence, 240 h, 125 g ai/ha, Postemergence; visual injury after approximately 10 d; 0 to 100 scale where 0 is no effect and 100 is complete control; read-out: Plant response rating, Foxtail, Giant
Summary of the method: as §1

[16] = system: ragweed (common ragweed, Ambrosia elatior); assay: Test A postemergence; settings: Ambrosia artemisiifolia, post-emergence, 240 h, 125 g ai/ha, Postemergence; visual injury after approximately 10 d; 0 to 100 scale where 0 is no effect and 100 is complete control; read-out: Plant response rating, Ragweed
Summary of the method: as §1

[17] = system: Galium (catchweed bedstraw, Galium aparine); assay: Test A postemergence; settings: Galium, post-emergence, 240 h, 125 g ai/ha, Postemergence; visual injury after approximately 10 d; 0 to 100 scale where 0 is no effect and 100 is complete control; read-out: Plant response rating, Galium
Summary of the method: as §1

[18] = system: pigweed (Amaranthus retroflexus); assay: Test A postemergence; settings: Amaranthus retroflexus, post-emergence, 240 h, 125 g ai/ha, Postemergence; visual injury after approximately 10 d; 0 to 100 scale where 0 is no effect and 100 is complete control; read-out: Plant response rating, Pigweed
Summary of the method: as §1

SMILES: COc1ccc([C@H]2CN(C)C(=O)[C@@H]2C(=O)Nc2ccccc2F)cc1C(F)(F)F [Compound 984]
- pest or weed control at 125 g/ha ([1]; 125 g ai/ha, Preemergence, visual injury rating after approximately 10 d, read-out: Barnyardgrass plant response rating (0 to 100 scale, 0 is no effect, 100 is complete control)): 100%
- pest or weed control at 500 g/ha ([1]; 500 g ai/ha, preemergence, visual injury rating about 10 d after treatment, 0 to 100 scale (0 no effect, 100 complete control), read-out: Barnyardgrass plant response rating): 100%
- pest or weed control at 125 g/ha (Kochia (Kochia scoparia) [2]; 125 g ai/ha, Preemergence, visual injury rating after approximately 10 d, read-out: Kochia plant response rating (0 to 100 scale, 0 is no effect, 100 is complete control)): 90%
- pest or weed control at 500 g/ha (Kochia (Kochia scoparia) [2]; 500 g ai/ha, preemergence, visual injury rating about 10 d after treatment, 0 to 100 scale (0 no effect, 100 complete control), read-out: Kochia plant response rating): 90%
- pest or weed control at 125 g/ha ([3]; 125 g ai/ha, Preemergence, visual injury rating after approximately 10 d, read-out: Ryegrass, Italian plant response rating (0 to 100 scale, 0 is no effect, 100 is complete control)): 70%
- pest or weed control at 500 g/ha ([3]; 500 g ai/ha, preemergence, visual injury rating about 10 d after treatment, 0 to 100 scale (0 no effect, 100 complete control), read-out: Ryegrass, Italian plant response rating): 30%
- pest or weed control at 125 g/ha ([4]; 125 g ai/ha, Preemergence, visual injury rating after approximately 10 d, read-out: Foxtail, Giant plant response rating (0 to 100 scale, 0 is no effect, 100 is complete control)): 100%
- pest or weed control at 500 g/ha ([4]; 500 g ai/ha, preemergence, visual injury rating about 10 d after treatment, 0 to 100 scale (0 no effect, 100 complete control), read-out: Foxtail, Giant plant response rating): 100%
- pest or weed control at 125 g/ha ([5]; 125 g ai/ha, Preemergence, visual injury rating after approximately 10 d, read-out: Ragweed plant response rating (0 to 100 scale, 0 is no effect, 100 is complete control)): 0%
- pest or weed control at 500 g/ha ([5]; 500 g ai/ha, preemergence, visual injury rating about 10 d after treatment, 0 to 100 scale (0 no effect, 100 complete control), read-out: Ragweed plant response rating): 30%
- pest or weed control at 125 g/ha ([6]; 125 g ai/ha, Preemergence, visual injury rating after approximately 10 d, read-out: Pigweed plant response rating (0 to 100 scale, 0 is no effect, 100 is complete control)): 40%
- pest or weed control at 500 g/ha ([6]; 500 g ai/ha, preemergence, visual injury rating about 10 d after treatment, 0 to 100 scale (0 no effect, 100 complete control), read-out: Pigweed plant response rating): 60%
- pest or weed control at 250 g/ha [7]: 55%
- pest or weed control at 250 g/ha [8]: 0%
- pest or weed control at 250 g/ha (rice (Oryra sativa)): 15%
- pest or weed control at 250 g/ha [9]: 85%
- pest or weed control at 125 g/ha [10]: 100%
- Corn plant response rating (crop injury, 0 = no effect, 100 = complete kill) at 125 g/ha (corn (Zea mays)): 80%
- plant injury at 125 g/ha [11]: 20%
- pest or weed control at 125 g/ha [12]: 30%
- pest or weed control at 125 g/ha (Kochia (Kochia scoparia) [13]): 50%
- pest or weed control at 125 g/ha [14]: 20%
- pest or weed control at 125 g/ha [15]: 90%
- pest or weed control at 125 g/ha [16]: 0%
- pest or weed control at 125 g/ha [17]: 30%
- pest or weed control at 125 g/ha [18]: 0%
